A short description of the assay: Weight loss screen in Balb/C mice. The following applies: 60 mg/kg intraperitoneally, day 1. It counts as in vivo. The procedure: Weight Loss Screen for Novel FAS Inhibitors
Balb/C mice (Jackson Labs) are utilized for the initial weight loss screening. Animals are housed in temperature and 12 hour day/night cycle rooms and fed mouse chow and water ad lib. Three mice are utilized for each compound tested with vehicle controls in triplicate per experiment. For the experiments, mice are housed separately for each compound tested three mice to a cage. Compounds are diluted in DMSO at 10 mg/ml and mice are injected intraperitoneally with 60 mg/kg in approximately 100 μl of DMSO or with vehicle alone. Mice are observed and weighed daily; average weights and standard errors are computed with Excel (Microsoft). The experiment continues until treated animals reach their pretreatment weights.

SMILES strings stand for the structures.

In the case of `CCCCCCCCC1(C)SC(=O)C=C1OCC(=O)NNc1ccccc1Cl` (stereo not shown) [Compound 19, (5-Methyl-5-octyl-2-oxo-thiophen-4-yloxy)-acetic-acid-N′-(2-chlorophenyl)-hydrazide], the “Weight Loss” value is given as 60 mg/kg: +3.0% (day 1).

Values taken from patent US20100168176A1, “NOVEL COMPOUNDS, PHARMACEUTICAL COMPOSITIONS CONTAINING SAME, AND METHODS OF USE FOR SAME” (FASGEN LLC, priority 2006, published 2010).
